From US20130131089A1, “DOSAGE FORMS OF ELINOGREL AND METHODS OF INJECTABLE ADMINISTRATION THEREOF” (Portola Phamaceuticals Inc., priority 2010, published 2013)
Converted amounts (≈) assume the structure as drawn. Where two headings read alike, the source gives them in different places.

What was measured:
[1] = pH 9.3
Method: (§1) The white to off-white wet solids were collected by centrifugation at 13,000 rpm for 5 min and supernatant removal.

[2] = physchem; conditions: thermodynamic from solid, S (solubility)
Method: as §1

[3] = Kinetic solubility in liquid formulation containing mannitol and glycine buffer; assay type: physicochemical; conditions: 4% mannitol; for Solubility (kinetic): 50 mM glycine sodium; for solubility kinetic at 3 day / solubility kinetic at 4 day / solubility kinetic at 5 day / solubility kinetic at 1 day / solubility kinetic at 2 day: IV vehicle: 50 mM glycine sodium, thermodynamic from solid; for solubility kinetic at 5 day: pH 8.8, Day 5
Method: Three solid state forms of Elinogrel were tested: i.e., Form B (mono potassium hemi hydrate), Form C (hemi potassium trihydrate), and the Free Acid form. Excess Elinogrel (i.e., ˜10 mg/ml when fully dissolved) was equilibrated with the IV vehicle composed of 50 mM glycine sodium and 4% mannitol at RT or refrigerated. The pH was monitored and adjusted to the target range using NaOH or HCl.

[4] = Solubility in sodium sulfobutyl ether β-cyclodextrin solutions over time; assay type: physicochemical
Method: A set of samples in 0, 10, 20, and 40% sodium sulfobutyl ether β-cyclodextrin with no pH adjustment were equilibrated for 12 days and concentrations of supernatants at 1, 3, 6, and 12 days were determined.
The solubility results of Elinogrel potassium at various sodium sulfobutyl ether β-cyclodextrin concentrations as a function of time (without pH adjustment) are shown in Table 4. […] There is a continued decrease of solubility overtime, before it approaching plateau at each SBE-β-CD level.

[5] = Solubility in co-solvents (propylene glycol, ethanol); assay type: physicochemical; conditions: propylene glycol/ethanol co-solvent mixture, aqueous with cosolvent or surfactant or cyclodextrin, thermodynamic from solid, 10% EtOH, no pH adjustment, 25° C.
Method: Excess Elinogrel potassium solids were added into ½ mL of 25% or 75% propylene glycol with 10% ethanol and the suspensions were equilibrated for 12 days at ambient temperature. Solubilities were determined by analyzing concentration of supernatants via HPLC.

[6] = pKa, logP and logD of Elinogrel; assay type: physicochemical
[7] = Aqueous solubility of the free acid form; assay type: physicochemical; conditions: aqueous medium, aqueous buffer; pH 1.0-7.4
[8] = Thermodynamic solubility at different pH at 37° C.; assay type: physicochemical; conditions: aqueous slurry, thermodynamic from solid
Method: The thermodynamic solubility of Elinogrel potassium salt and free acid in pH range of 1-10 at 37° C. was also determined. Excess Elinogrel free acid or potassium salt (start from Form B) was equilibrated with its aqueous slurries at various pH under constant agitation. Different amounts of NaOH or HCl solution were used to adjust pH. Solubility was determined after 3 days by analyzing the elinogrel concentration in supernatant of the slurry after ultracentrifugation.

[9] = tested on: Male New Zealand White rabbits; assay: Rabbit vein and tissue irritation study; assay type: in vivo; conditions: 4% mannitol, perivascular and subcutaneous, 5 days
Method: Male New Zealand White rabbits were utilized in this study. Rabbits received 3 injections:
Intravenous (IV): 1.0 mL in left marginal ear vein;
Perivascular: 0.5 mL near the right marginal ear vein; and
Subcutaneous (SC): 1.0 mL in the scapular region of the dorsal back.
There were four rabbits per each of the following dose groups.
Normal Saline: 0.9% sodium chloride
Vehicle: 10 mM sodium glycine, 4% mannitol, pH 9.31
Elinogrel (Na salt) at 16.7 mg/mL in 10 mM glycine, 4% mannitol, pH 9.33
Elinogrel (K salt) at 4.0 mg/mL in 50 mM glycine, 4% mannitol, pH 9.38
On day 5, tissues (ears and skin) were harvested and processed for histological examination of the injection site.

## CNc1cc2[nH]c(=O)n(-c3ccc(NC(=O)NS(=O)(=O)c4ccc(Cl)s4)cc3)c(=O)c2cc1F [Elinogrel sodium hydrate]
[1]
  S (solubility): 17000 µg/mL
[2]; 4 °C, water
  solubility: 13000 µg/mL
[2]; pH 9.2, water
  solubility: 23000 µg/mL
[2]; pH 9.3, aqueous buffer
  solubility: 16000 µg/mL

## CNc1cc2[nH]c(=O)n(-c3ccc(NC(=O)NS(=O)(=O)c4ccc(Cl)s4)cc3)c(=O)c2cc1F [Elinogrel potassium (Form C)]
[3]; RT, pH 8.8, Day 1, listed as Elinogrel K-Form C, potassium salt
  Solubility (kinetic): 2360 µg/mL
[3]; RT, pH 8.8, Day 2, listed as Elinogrel K-Form C, potassium salt
  Solubility (kinetic): 1920 µg/mL
[3]; pH 8.8, aqueous buffer, RT, pH 8.8, Day 3
  solubility kinetic at 3 day: 1790 µg/mL
[3]; pH 8.8, aqueous buffer, RT, pH 8.8, Day 4
  solubility kinetic at 4 day: 2150 µg/mL
[3]; pH 8.8, aqueous buffer, RT
  solubility kinetic at 5 day: 1450 µg/mL
[4]; 20% sodium sulfobutyl ether β-cyclodextrin vs water
  solubility in 20% sodium sulfobutyl ether β-cyclodextrin relative to that in water: approximately 4 fold
[4]; 20% sodium sulfobutyl ether β-cyclodextrin, 12 d, no pH adjustment (pH~7), potassium salt
  Elinogrel potassium conc.: 11.5 mg/mL

## CNc1cc2[nH]c(=O)n(-c3ccc(NC(=O)NS(=O)(=O)c4ccc(Cl)s4)cc3)c(=O)c2cc1F [Elinogrel potassium (Form B)]
[3]; RT, pH 8.8, Day 1, listed as Elinogrel K salt-Form B, potassium salt
  Solubility (kinetic): 5930 µg/mL
[3]; RT, pH 8.8, Day 2, listed as Elinogrel K salt-Form B, potassium salt
  Solubility (kinetic): 5200 µg/mL
[3]; RT, pH 8.8, Day 3, listed as Elinogrel K salt-Form B, potassium salt
  Solubility (kinetic): 1750 µg/mL
[3]; RT, pH 8.8, Day 4, listed as Elinogrel K salt-Form B, potassium salt
  Solubility (kinetic): 2080 µg/mL
[3]; RT, pH 8.8, Day 5, listed as Elinogrel K salt-Form B, potassium salt
  Solubility (kinetic): 1370 µg/mL
[3]; RT, pH 9, Day 1, listed as Elinogrel K salt-Form B, potassium salt
  Solubility (kinetic): 5890 µg/mL
[3]; RT, pH 9, Day 2, listed as Elinogrel K salt-Form B, potassium salt
  Solubility (kinetic): 3560 µg/mL
[3]; RT, pH 9, Day 3, listed as Elinogrel K salt-Form B, potassium salt
  Solubility (kinetic): 1780 µg/mL
[3]; RT, pH 9, Day 4, listed as Elinogrel K salt-Form B, potassium salt
  Solubility (kinetic): 1950 µg/mL
[3]; RT, pH 9, Day 5, listed as Elinogrel K salt-Form B, potassium salt
  Solubility (kinetic): 1290 µg/mL
[3]; 5 °C, pH 8.8, aqueous buffer, 5° C., pH 8.8, Day 1
  solubility kinetic at 1 day: 5480 µg/mL
[3]; 5 °C, pH 8.8, aqueous buffer, 5° C., pH 8.8, Day 2
  solubility kinetic at 2 day: 4020 µg/mL
[3]; 5 °C, pH 8.8, aqueous buffer, 5° C., pH 8.8, Day 3
  solubility kinetic at 3 day: 1580 µg/mL
[3]; 5 °C, pH 8.8, aqueous buffer, 5° C., pH 8.8, Day 4
  solubility kinetic at 4 day: 1580 µg/mL
[3]; 5 °C, pH 8.8, aqueous buffer, 5° C.
  solubility kinetic at 5 day: 1110 µg/mL
[5]; 25% PG, pH 7.0, read-out: S (solubility)
  solubility at 12 d: 8000 µg/mL
[5]; 75% PG, pH 7.3, read-out: S (solubility)
  solubility at 12 d: 21000 µg/mL

## CNc1cc2[nH]c(=O)n(-c3ccc(NC(=O)NS(=O)(=O)c4ccc(Cl)s4)cc3)c(=O)c2cc1F [Elinogrel, [4-(6-Fluoro-7-methylamino-2,4-dioxo-1,4-dihydro-2H-quinazolin-3-yl)-phenyl]-5-chloro-thiophen-2-yl-sulfonylurea]
[6]
  logP: about 2.5
  pKa: ~3.3
[6]; pH 7.4
  logD: about −1.6
[7]
  solubility: < 100 µg/mL
[3]; RT, pH 9, Day 5, listed as Elinogrel free acid-Form B
  Solubility (kinetic): 4050 µg/mL (≈ 7730 µM)
[3]; pH 9, aqueous buffer, RT, pH 9, Day 1
  solubility kinetic at 1 day: 3140 µg/mL (≈ 5990 µM)
[3]; pH 9, aqueous buffer, RT, pH 9, Day 2
  solubility kinetic at 2 day: 3230 µg/mL (≈ 6160 µM)
[3]; pH 9, aqueous buffer, RT, pH 9, Day 3
  solubility kinetic at 3 day: 3330 µg/mL (≈ 6360 µM)
[3]; pH 9, aqueous buffer, RT, pH 9, Day 4
  solubility kinetic at 4 day: 2650 µg/mL (≈ 5060 µM)
[8]; aqueous buffer, pH 3.00
  solubility thermodynamic at 3 days: 0.057 µg/mL (≈ 0.109 µM)
[8]; aqueous buffer, pH 8.11
  solubility thermodynamic at 3 days: 418 µg/mL (≈ 799 µM)
[8]; pH 1.1, simulated gastric fluid, pH 1.10
  solubility thermodynamic at 3 days: 0.03 µg/mL (≈ 0.0573 µM)
[8]; pH adjusted with NaOH or HCl, aqueous buffer, pH 5.97
  solubility thermodynamic at 3 days: 0.544 µg/mL (≈ 1.04 µM)
[8]; pH adjusted with NaOH or HCl, aqueous buffer, pH 6.61
  solubility thermodynamic at 3 days: 2.17 µg/mL (≈ 4.14 µM)
[8]; pH adjusted with NaOH or HCl, aqueous buffer, pH 7.22
  solubility thermodynamic at 3 days: 46.6 µg/mL (≈ 88.9 µM)
[8]; pH adjusted with NaOH or HCl, pH 4.2, aqueous buffer, pH 4.20
  solubility thermodynamic at 3 days: 0.022 µg/mL (≈ 0.042 µM)
[8]; simulated gastric fluid, pH 1.88
  solubility thermodynamic at 3 days: 0.002 µg/mL (≈ 0.00382 µM)
[9]; K salt at 4.0 mg/mL in 50 mM glycine, pH 9.38, intravenous
  tolerability of injection: well tolerated
[9]; Na salt at 16.7 mg/mL in 10 mM glycine, pH 9.33, intravenous
  tolerability of injection: well tolerated
